According to US20050070510A1, “Substituted tetracycline compounds as synergistic antifungal agents” (Paratek Pharmaceuticals, Inc., priority 2001, published 2005):

system: COS-1 cells; test: In vitro mammalian cytotoxicity assay (Resazurin)

Structure (SMILES)	In Vitro Cytotoxicity
CSc1ccc(OC(=O)Nc2cc(N(C)C)c3c(c2O)C(=O)C2=C(O)[C@]4(C#N)C(=O)C(C(N)=O)=C(O)[C@@H](N(C)C)[C@]4(N)C[C@]2(N)C3)cc1 [KR]	* (toxicities greater than >25 μg/ml are represented by *)
CN(C)[C@@H]1C(O)=C(C(N)=O)C(=O)[C@@]2(C#N)C(O)=C3C(=O)c4c(O)c(C(C)(C)C)cc(-c5cccc([N+](=O)O)c5)c4C[C@@]3(N)C[C@@]12N [KS]	** (toxicities less than 25 μg/mL are represented by **)
CN(C)[C@@H]1C(O)=C(C(=O)CC(C)(C)C)C(=O)[C@@]2(C#N)C(O)=C3C(=O)c4c(O)c(C(C)(C)C)cc(-c5cccc([N+](=O)O)c5)c4C[C@@]3(N)C[C@@]12N [KT]	** (toxicities less than 25 μg/mL are represented by **)
CN(C)CC(=O)Nc1ccc2c(c1O)C(=O)C1=C(O)[C@]3(C#N)C(=O)C(C(N)=O)=C(O)[C@@H](N(C)C)[C@]3(N)C[C@]1(N)C2 [KU]	* (toxicities greater than >25 μg/ml are represented by *)
CCCCc1cc(CN)c(O)c2c1C[C@@]1(N)C[C@@]3(N)[C@H](N(C)C)C(O)=C(C(N)=O)C(=O)[C@@]3(C#N)C(O)=C1C2=O [KV]	* (toxicities greater than >25 μg/ml are represented by *)
CCCCCc1cc(N(C)C)c2c(c1O)C(=O)C1=C(O)[C@]3(C#N)C(=O)C(C(N)=O)=C(O)[C@@H](N(C)C)[C@]3(N)C[C@]1(N)C2 [KW]	** (toxicities less than 25 μg/mL are represented by **)
CCCC#Cc1cc(N(C)C)c2c(c1O)C(=O)C1=C(O)[C@]3(C#N)C(=O)C(C(N)=O)=C(O)[C@@H](N(C)C)[C@]3(N)C[C@]1(N)C2 [KX]	** (toxicities less than 25 μg/mL are represented by **)
CCCCc1ccc(O)c2c1C[C@@]1(N)C[C@@]3(N)[C@H](N(C)C)C(O)=C(C(N)=O)C(=O)[C@@]3(C#N)C(O)=C1C2=O [KY]	** (toxicities less than 25 μg/mL are represented by **)
CN(C)[C@@H]1C(O)=C(C(N)=O)C(=O)[C@@]2(C#N)C(O)=C3C(=O)c4c(O)c(C(=O)NCC5CCCO5)cc(-c5ccc(F)cc5)c4C[C@@]3(N)C[C@@]12N (stereo partly drawn) [KZ]	* (toxicities greater than >25 μg/ml are represented by *)
CCCCCc1cc(CC2C(=O)c3ccccc3C2=O)c(O)c2c1C[C@@]1(N)C[C@@]3(N)[C@H](N(C)C)C(O)=C(C(N)=O)C(=O)[C@@]3(C#N)C(O)=C1C2=O [LA]	** (toxicities less than 25 μg/mL are represented by **)
CCCCC#Cc1cc(N(C)C)c2c(c1O)C(=O)C1=C(O)[C@]3(C#N)C(=O)C(C(N)=O)=C(O)[C@@H](N(C)C)[C@]3(N)C[C@]1(N)C2 [LB]	** (toxicities less than 25 μg/mL are represented by **)
CN(C)c1cc(NC(=O)CNC(C)(C)C)c(O)c2c1C[C@@]1(N)C[C@@]3(N)[C@H](N(C)C)C(O)=C(C(N)=O)C(=O)[C@@]3(C#N)C(O)=C1C2=O [LC]	* (toxicities greater than >25 μg/ml are represented by *)
CCc1cc(C(C)(C)C)c(O)c2c1C[C@@]1(N)C[C@@]3(N)[C@H](N(C)C)C(O)=C(C(=O)NC(C)(C)C)C(=O)[C@@]3(C#N)C(O)=C1C2=O [LE]	** (toxicities less than 25 μg/mL are represented by **)
CCc1cc(CC)c2c(c1O)C(=O)C1=C(O)[C@]3(C#N)C(=O)C(C(N)=O)=C(O)[C@@H](N(C)C)[C@]3(N)C[C@]1(N)C2 [LF]	** (toxicities less than 25 μg/mL are represented by **)
CN(C)CC(=O)NCc1cc(N(C)C)c2c(c1O)C(=O)C1=C(O)[C@]3(C#N)C(=O)C(C(N)=O)=C(O)[C@@H](N(C)C)[C@]3(N)C[C@]1(N)C2 [LG]	** (toxicities less than 25 μg/mL are represented by **)
CCc1cc(C#Cc2ccc(OC)cc2)c(O)c2c1C[C@@]1(N)C[C@@]3(N)[C@H](N(C)C)C(O)=C(C(N)=O)C(=O)[C@@]3(C#N)C(O)=C1C2=O [LH]	** (toxicities less than 25 μg/mL are represented by **)
CCC(=O)c1ccc(O)c2c1C[C@@]1(N)C[C@@]3(N)[C@H](N(C)C)C(O)=C(C(N)=O)C(=O)[C@@]3(C#N)C(O)=C1C2=O [LI]	** (toxicities less than 25 μg/mL are represented by **)
CC(=O)NCc1cc(-c2ccccc2)c2c(c1O)C(=O)C1=C(O)[C@]3(C#N)C(=O)C(C(N)=O)=C(O)[C@@H](N(C)C)[C@]3(N)C[C@]1(N)C2 [LJ]	* (toxicities greater than >25 μg/ml are represented by *)
CN(C)[C@@H]1C(O)=C(C(N)=O)C(=O)[C@@]2(C#N)C(O)=C3C(=O)c4c(O)ccc(-c5ccccc5)c4C[C@@]3(N)C[C@@]12N [LK]	** (toxicities less than 25 μg/mL are represented by **)
CC(=O)c1cc(C(C)=O)c2c(c1O)C(=O)C1=C(O)[C@]3(C#N)C(=O)C(C(N)=O)=C(O)[C@@H](N(C)C)[C@]3(N)C[C@]1(N)C2 [LL]	* (toxicities greater than >25 μg/ml are represented by *)
CCOC(=O)CNC(=O)c1cccc(-c2cc(N(C)C)c3c(c2O)C(=O)C2=C(O)[C@]4(C#N)C(=O)C(C(N)=O)=C(O)[C@@H](N(C)C)[C@]4(N)C[C@]2(N)C3)c1 [LM]	** (toxicities less than 25 μg/mL are represented by **)
CN(C)c1cc(NCCc2ccccc2)c(O)c2c1C[C@@]1(N)C[C@@]3(N)[C@H](N(C)C)C(O)=C(C(N)=O)C(=O)[C@@]3(C#N)C(O)=C1C2=O [LN]	** (toxicities less than 25 μg/mL are represented by **)
CN(C)c1cc(NCc2ccccc2)c(O)c2c1C[C@@]1(N)C[C@@]3(N)[C@H](N(C)C)C(O)=C(C(N)=O)C(=O)[C@@]3(C#N)C(O)=C1C2=O [LO]	** (toxicities less than 25 μg/mL are represented by **)
CN(C)[C@@H]1C(O)=C(C(N)=O)C(=O)[C@@]2(C#N)C(O)=C3C(=O)c4c(O)c(-c5ccc6c(c5)OCO6)cc(-c5ccc6c(c5)OCO6)c4C[C@@]3(N)C[C@@]12N [LP]	** (toxicities less than 25 μg/mL are represented by **)
COc1ccc(CNC2CCCCC2)cc1-c1ccc(O)c2c1C[C@@]1(N)C[C@@]3(N)[C@H](N(C)C)C(O)=C(C(N)=O)C(=O)[C@@]3(C#N)C(O)=C1C2=O [LQ]	* (toxicities greater than >25 μg/ml are represented by *)
CCN(CC)Cc1ccc(OC)c(-c2ccc(O)c3c2C[C@@]2(N)C[C@@]4(N)[C@H](N(C)C)C(O)=C(C(N)=O)C(=O)[C@@]4(C#N)C(O)=C2C3=O)c1 [LR]	* (toxicities greater than >25 μg/ml are represented by *)
COc1ccc(CNC(C)C)cc1-c1ccc(O)c2c1C[C@@]1(N)C[C@@]3(N)[C@H](N(C)C)C(O)=C(C(N)=O)C(=O)[C@@]3(C#N)C(O)=C1C2=O [LS]	* (toxicities greater than >25 μg/ml are represented by *)
CCCNCc1ccc(OC)c(-c2ccc(O)c3c2C[C@@]2(N)C[C@@]4(N)[C@H](N(C)C)C(O)=C(C(N)=O)C(=O)[C@@]4(C#N)C(O)=C2C3=O)c1 [LV]	* (toxicities greater than >25 μg/ml are represented by *)
COc1ccc(CNCC(C)C)cc1-c1ccc(O)c2c1C[C@@]1(N)C[C@@]3(N)[C@H](N(C)C)C(O)=C(C(N)=O)C(=O)[C@@]3(C#N)C(O)=C1C2=O [LW]	* (toxicities greater than >25 μg/ml are represented by *)
CN(C)c1cc(CNCCc2ccccc2)c(O)c2c1C[C@@]1(N)C[C@@]3(N)[C@H](N(C)C)C(O)=C(C(N)=O)C(=O)[C@@]3(C#N)C(O)=C1C2=O [LX]	* (toxicities greater than >25 μg/ml are represented by *)
